The target of one assay is GCN2 kinase (Homo sapiens, UniProt Q9P2K8). The assay is described as follows: GCN2 enzyme inhibition assay (Transcreener ADP2 fluorescence polarization). The following applies: Enzyme activity for compounds of Formula IV; Ki(app), 280 μM ATP, 25° C. The assay is classed as biochemical. In a few lines: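 Inhibition of 4 nM GCN2 was measured with compound up to 8 μM final, ATP 280 μM and (RS)7 peptide 200 μM over a 1 h, 25 °C reaction. ADP FP readout; IC50 and Ki(app) calculated from percent inhibition.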
On the technique in general: In fluorescence polarisation assays a small probe gives low polarisation when free and higher when bound to something large.

The target of assay [1] is intracellular GCN2 (phosphorylation of the GCN2 substrate eIF2α) (Homo sapiens, UniProt Q9P2K8). The assay can be described thus: GCN2 cellular inhibition assay (AlphaScreen SureFire P-eIF2α Ser51, borrelidin-treated U2OS cells). The assay is classed as cell-based. The following applies: compounds of Formula IV; biomarker assay, phosphorylated eIF2α Ser51 in borrelidin-treated U2OS cells. In a few lines: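 U2OS cells, adhered overnight, received compounds in 4-fold serial dilutions from 40 μM final, then 10 μM borrelidin for 1 h at 37 °C. Lysates were read by AlphaScreen for phospho-eIF2α Ser51; percent inhibition was set against borrelidin-only wells.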
(Alpha assays give light when donor and acceptor beads are brought close together.)

The structures appear in SMILES notation. pIC50, pKi: −log10 of the molar value.

Usually pKi stands for the negative decadic logarithm of the Ki, by convention in mol/L. One may read the pIC50 as −log10 of the IC50, conventionally taken in molar units.

Sequence of intracellular GCN2 (phosphorylation of the GCN2 substrate eIF2α) (Q9P2K8 whole entry): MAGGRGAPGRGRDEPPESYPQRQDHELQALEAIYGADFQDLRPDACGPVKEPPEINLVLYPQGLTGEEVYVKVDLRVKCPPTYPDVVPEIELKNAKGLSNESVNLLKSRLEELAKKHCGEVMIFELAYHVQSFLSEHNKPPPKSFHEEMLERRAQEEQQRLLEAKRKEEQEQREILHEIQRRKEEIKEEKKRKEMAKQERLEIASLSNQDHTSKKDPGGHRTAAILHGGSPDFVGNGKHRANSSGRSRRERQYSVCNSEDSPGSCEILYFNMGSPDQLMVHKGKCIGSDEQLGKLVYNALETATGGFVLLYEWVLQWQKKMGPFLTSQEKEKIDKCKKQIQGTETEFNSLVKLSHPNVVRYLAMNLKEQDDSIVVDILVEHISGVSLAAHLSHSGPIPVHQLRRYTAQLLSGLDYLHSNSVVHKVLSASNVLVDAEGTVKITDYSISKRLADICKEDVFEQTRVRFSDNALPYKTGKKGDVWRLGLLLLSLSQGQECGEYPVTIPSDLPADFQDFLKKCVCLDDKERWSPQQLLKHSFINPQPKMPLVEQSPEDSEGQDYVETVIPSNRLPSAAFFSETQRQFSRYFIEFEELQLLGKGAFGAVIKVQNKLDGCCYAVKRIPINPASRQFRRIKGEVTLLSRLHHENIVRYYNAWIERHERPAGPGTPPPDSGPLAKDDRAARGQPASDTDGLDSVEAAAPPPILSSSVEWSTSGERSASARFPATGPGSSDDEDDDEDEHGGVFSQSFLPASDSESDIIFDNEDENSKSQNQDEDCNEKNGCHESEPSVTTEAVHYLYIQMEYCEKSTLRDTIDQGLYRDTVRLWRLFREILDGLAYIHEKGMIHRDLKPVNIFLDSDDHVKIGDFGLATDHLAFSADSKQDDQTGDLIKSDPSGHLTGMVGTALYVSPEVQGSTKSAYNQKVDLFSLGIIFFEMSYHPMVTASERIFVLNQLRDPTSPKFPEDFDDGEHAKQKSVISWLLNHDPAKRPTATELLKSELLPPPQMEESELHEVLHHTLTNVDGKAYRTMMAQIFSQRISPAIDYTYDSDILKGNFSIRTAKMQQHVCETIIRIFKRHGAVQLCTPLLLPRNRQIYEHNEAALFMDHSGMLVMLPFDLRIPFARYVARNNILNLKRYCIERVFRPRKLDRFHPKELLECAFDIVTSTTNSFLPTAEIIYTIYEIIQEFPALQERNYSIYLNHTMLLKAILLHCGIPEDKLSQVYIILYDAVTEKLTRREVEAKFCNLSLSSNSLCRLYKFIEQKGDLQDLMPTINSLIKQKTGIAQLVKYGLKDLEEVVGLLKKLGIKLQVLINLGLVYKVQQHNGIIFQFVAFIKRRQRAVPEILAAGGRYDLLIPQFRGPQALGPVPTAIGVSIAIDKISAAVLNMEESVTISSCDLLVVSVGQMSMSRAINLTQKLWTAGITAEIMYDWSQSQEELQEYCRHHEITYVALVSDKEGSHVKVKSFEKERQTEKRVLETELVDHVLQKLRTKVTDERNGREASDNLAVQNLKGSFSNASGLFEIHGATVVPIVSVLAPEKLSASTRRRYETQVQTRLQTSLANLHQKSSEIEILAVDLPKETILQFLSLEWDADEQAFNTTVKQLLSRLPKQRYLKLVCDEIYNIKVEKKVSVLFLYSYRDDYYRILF
Sequence of GCN2 kinase (Q9P2K8 whole entry): as above

`Cc1[nH]ncc1C1CN(c2ccnc(-c3cnc4cnc(C(F)F)cn34)n2)CC(C)N1` (single isomer, unassigned) [IV-463, 6-(Difluoromethyl)-3-(4-(3-methyl-5-(5-methyl-1H-pyrazol-4-yl)piperazin-1-yl)pyrimidin-2-yl)imidazo[1,2-a]pyrazine]: the pKi at GCN2 kinase was 6.00 to 7.00. The molecule also showed a pIC50 in assay [1] below 5.30.
On the same counts, the results for `Cc1n[nH]c(C)c1C1CN(c2ccnc(-c3cnc4cnc(C(F)(F)F)cn34)n2)CC(C)N1` (single isomer, unassigned) [IV-465, 3-(4-(3-(3,5-Dimethyl-1H-pyrazol-4-yl)-5-methylpiperazin-1-yl)pyrimidin-2-yl)-6-(trifluoromethyl)imidazo[1,2-a]pyrazine] are 7.00 to 8.00 and 5.30 to 6.30.
For `Cc1n[nH]c(C)c1C1CN(c2ccnc(-c3cnc4cnc(C(F)(F)F)cn34)n2)CC(C)N1` (single isomer, unassigned) [IV-467, 3-(4-(3-(3,5-Dimethyl-1H-pyrazol-4-yl)-5-methylpiperazin-1-yl)pyrimidin-2-yl)-6-(trifluoromethyl)imidazo[1,2-a]pyrazine], at GCN2 kinase, the pKi is 6.00 to 7.00. In addition, the pIC50 in assay [1] was below 5.30.
In the case of `Cc1n[nH]cc1C1CCCN(c2ccnc(-c3cnc4cnc(C(F)F)cn34)n2)C1` (single isomer, unassigned) [IV-468, 6-(Difluoromethyl)-3-(4-(3-(3-methyl-1H-pyrazol-4-yl)piperidin-1-yl)pyrimidin-2-yl)imidazo[1,2-a]pyrazine], the pKi at GCN2 kinase was 7.00 to 8.00. The molecule further gave a pIC50 in assay [1] of 5.30 to 6.30.
Molecule `Cc1n[nH]cc1C1CCCN(c2ccnc(-c3cnc4cnc(C(F)F)cn34)n2)C1` (single isomer, unassigned) [IV-469, 6-(Difluoromethyl)-3-(4-(3-(3-methyl-1H-pyrazol-4-yl)piperidin-1-yl)pyrimidin-2-yl)imidazo[1,2-a]pyrazine] gave a pKi on GCN2 kinase of 7.00 to 8.00. In assay [1], this molecule had a negative-log IC50 (pIC50) below 5.30.
In the same order, the values of `Cc1[nH]ncc1C1CCCN(c2ccnc(-c3cnc4cnc(C(F)(F)F)cn34)n2)C1` (single isomer, unassigned) [IV-470, 3-(4-(3-(5-Methyl-1H-pyrazol-4-yl)piperidin-1-yl)pyrimidin-2-yl)-6-(trifluoromethyl)imidazo[1,2-a]pyrazine] are above 8.00 and below 5.30.
`Cc1[nH]ncc1C1CCCN(c2ccnc(-c3cnc4cnc(C(F)(F)F)cn34)n2)C1` (single isomer, unassigned) [IV-471, 3-(4-(3-(5-Methyl-1H-pyrazol-4-yl)piperidin-1-yl)pyrimidin-2-yl)-6-(trifluoromethyl)imidazo[1,2-a]pyrazine] showed a pKi on GCN2 kinase of 7.00 to 8.00. Also, the pIC50 in assay [1] is below 5.30.
In the same order, the values of `CC1CN(c2ccnc(-c3cnc4cnc(C(F)(F)F)cn34)n2)CC(c2cn[nH]c2C(F)(F)F)N1` (single isomer, unassigned) [IV-474, 3-(4-(3-Methyl-5-(5-(trifluoromethyl)-1H-pyrazol-4-yl)piperazin-1-yl)pyrimidin-2-yl)-6-(trifluoromethyl)imidazo[1,2-a]pyrazine] are above 8.00 and above 6.30.
Molecule `Fc1n[nH]cc1C1CCCN(c2ccnc(-c3cnc4cnc(C(F)(F)F)cn34)n2)C1` (single isomer, unassigned) [IV-491, 3-(4-(3-(3-Fluoro-1H-pyrazol-4-yl)piperidin-1-yl)pyrimidin-2-yl)-6-(trifluoromethyl)imidazo[1,2-a]pyrazine] showed a pKi at GCN2 kinase above 8.00. Besides, the pIC50 in assay [1] is above 6.30.
Molecule `Fc1n[nH]cc1C1CCCN(c2ccnc(-c3cnc4cnc(C(F)(F)F)cn34)n2)C1` (single isomer, unassigned) [IV-492, 3-(4-(3-(3-Fluoro-1H-pyrazol-4-yl)piperidin-1-yl)pyrimidin-2-yl)-6-(trifluoromethyl)imidazo[1,2-a]pyrazine] showed a pKi at GCN2 kinase above 8.00. Further, the pIC50 in assay [1] is above 6.30.
On the same counts, the results for `CC1C(C(N)=O)CCCN1c1ccnc(-c2cnc3cnc(C(F)(F)F)cn23)n1` (single isomer, unassigned) [IV-499, 2-Methyl-1-(2-(6-(trifluoromethyl)imidazo[1,2-a]pyrazin-3-yl)pyrimidin-4-yl)piperidine-3-carboxamide] are above 8.00 and 5.30 to 6.30.
In the same order, the values of `CC1CC(C(N)=O)C(C)N(c2ccnc(-c3cnc4cnc(C(F)(F)F)cn34)n2)C1` (single isomer, unassigned) [IV-501, 2,5-Dimethyl-1-(2-(6-(trifluoromethyl)imidazo[1,2-a]pyrazin-3-yl)pyrimidin-4-yl)piperidine-3-carboxamide] are above 8.00 and 5.30 to 6.30.
In the same order, the values of `CC1CN(c2ccnc(-c3cnc4cnc(C(F)(F)F)cn34)n2)C(C)C(c2cnc[nH]2)N1` (single isomer, unassigned) [IV-538, 3-(4-(3-(1H-Imidazol-5-yl)-2,5-dimethylpiperazin-1-yl)pyrimidin-2-yl)-6-(trifluoromethyl)imidazo[1,2-a]pyrazine] are above 8.00 and 5.30 to 6.30.
In turn, `FC(F)(F)c1cn2c(-c3nccc(N4CCC(c5cn[nH]c5)C4)n3)cnc2cn1` (single isomer, unassigned) [IV-540, 3-(4-(3-(1H-Pyrazol-4-yl)pyrrolidin-1-yl)pyrimidin-2-yl)-6-(trifluoromethyl)imidazo[1,2-a]pyrazine] gave a pKi at GCN2 kinase above 8.00. For the same molecule, in assay [1], the pIC50 was 5.30 to 6.30.
In the same order, the values of `FC(F)(F)c1cn2c(-c3nccc(N4CCCC(c5cn[nH]c5)C4)n3)cnc2cn1` (single isomer, unassigned) [IV-545, 3-(4-(3-(1H-Pyrazol-4-yl)piperidin-1-yl)pyrimidin-2-yl)-6-(trifluoromethyl)imidazo[1,2-a]pyrazine] are above 8.00 and 5.30 to 6.30.
In the same order, the values of `FC(F)(F)c1cn2c(-c3nccc(N4CCCC(c5cn[nH]c5)C4)n3)cnc2cn1` (single isomer, unassigned) [IV-546, 3-(4-(3-(1H-Pyrazol-4-yl)piperidin-1-yl)pyrimidin-2-yl)-6-(trifluoromethyl)imidazo[1,2-a]pyrazine] are above 8.00 and above 6.30.
In the same order, the values of `Fc1n[nH]cc1C1CCN(c2ccnc(-c3cnc4cnc(C(F)(F)F)cn34)n2)C1` (single isomer, unassigned) [IV-562, 3-(4-(3-(3-Fluoro-1H-pyrazol-4-yl)pyrrolidin-1-yl)pyrimidin-2-yl)-6-(trifluoromethyl)imidazo[1,2-a]pyrazine] are above 8.00 and above 6.30.
On to `Fc1n[nH]cc1C1CCN(c2ccnc(-c3cnc4cnc(C(F)(F)F)cn34)n2)C1` (single isomer, unassigned) [IV-563, 3-(4-(3-(3-Fluoro-1H-pyrazol-4-yl)pyrrolidin-1-yl)pyrimidin-2-yl)-6-(trifluoromethyl)imidazo[1,2-a]pyrazine], for which the pKi at GCN2 kinase is above 8.00. In assay [1], this molecule gave a pIC50 of 5.30 to 6.30.
The molecule `CP(C)(=O)C1CC(c2cn[nH]c2)CN(c2ccnc(-c3cnc4cnc(C(F)(F)F)cn34)n2)C1` (single isomer, unassigned) [IV-592, (5-(1H-Pyrazol-4-yl)-1-(2-(6-(trifluoromethyl)imidazo[1,2-a]pyrazin-3-yl)pyrimidin-4-yl)piperidin-3-yl)dimethylphosphine oxide] had a pKi on GCN2 kinase above 8.00. Moreover, the negative-log IC50 (pIC50) in assay [1] is below 5.30.
On to `CC1C(C(N)=O)CCN1c1ccnc(-c2cnc3cnc(C(F)(F)F)cn23)n1` (single isomer, unassigned) [IV-614, 2-Methyl-1-(2-(6-(trifluoromethyl)imidazo[1,2-a]pyrazin-3-yl)pyrimidin-4-yl)pyrrolidine-3-carboxamide], for which, at GCN2 kinase, the pKi was 6.00 to 7.00. In assay [1], this molecule showed a negative-log IC50 (pIC50) below 5.30.
With `CC1C(C(N)=O)CCN1c1ccnc(-c2cnc3cnc(C(F)(F)F)cn23)n1` (single isomer, unassigned) [IV-615, 2-Methyl-1-(2-(6-(trifluoromethyl)imidazo[1,2-a]pyrazin-3-yl)pyrimidin-4-yl)pyrrolidine-3-carboxamide], the pKi on GCN2 kinase was 7.00 to 8.00. The molecule also gave a pIC50 in assay [1] of 5.30 to 6.30.
In the same order, the values of `OC1CCN(c2ccnc(-c3cnc4cnc(C(F)(F)F)cn34)n2)CC1c1cn[nH]c1` (single isomer, unassigned) [IV-621, 3-(1H-Pyrazol-4-yl)-1-(2-(6-(trifluoromethyl)imidazo[1,2-a]pyrazin-3-yl)pyrimidin-4-yl)piperidin-4-ol] are above 8.00 and 5.30 to 6.30.
Consider `OC1CCN(c2ccnc(-c3cnc4cnc(C(F)(F)F)cn34)n2)CC1c1cn[nH]c1` (single isomer, unassigned) [IV-622, 3-(1H-Pyrazol-4-yl)-1-(2-(6-(trifluoromethyl)imidazo[1,2-a]pyrazin-3-yl)pyrimidin-4-yl)piperidin-4-ol], for which, at GCN2 kinase, the pKi was above 8.00. For the same molecule, in assay [1], the pIC50 is 5.30 to 6.30.
On the same counts, the results for `OC1CCN(c2ccnc(-c3cnc4cnc(C(F)(F)F)cn34)n2)CC1c1cn[nH]c1` (single isomer, unassigned) [IV-623, 3-(1H-Pyrazol-4-yl)-1-(2-(6-(trifluoromethyl)imidazo[1,2-a]pyrazin-3-yl)pyrimidin-4-yl)piperidin-4-ol] are above 8.00 and above 6.30.
In the same order, the values of `OC1CCN(c2ccnc(-c3cnc4cnc(C(F)(F)F)cn34)n2)CC1c1cn[nH]c1` (single isomer, unassigned) [IV-624, 3-(1H-Pyrazol-4-yl)-1-(2-(6-(trifluoromethyl)imidazo[1,2-a]pyrazin-3-yl)pyrimidin-4-yl)piperidin-4-ol] are 7.00 to 8.00 and 5.30 to 6.30.

The values are drawn from US10988477B2 (Merck Patent GmbH, priority 2018, dated 2021).
